The values below come from article PMC7861561 (Current Research in Structural Biology, 2020).

This assay concerns the target T1, BRPF1 bromodomain (Homo sapiens, UniProt P55201).
T1 sequence (P55201 629-742): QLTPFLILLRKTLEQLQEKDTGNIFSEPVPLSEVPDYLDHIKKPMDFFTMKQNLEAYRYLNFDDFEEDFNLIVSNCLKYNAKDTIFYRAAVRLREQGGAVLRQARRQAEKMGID
In words: biochemical. The format is binding. Particulars: SD.

Ends that are not written are not given here.

As a reminder, the Kd is the constant that tells how readily two partners part at equilibrium. Read a low Kd as tighter binding.

With LGKGGAK(Ac)RHRK [H4K16ac (10–20)], the Kd was found to be 518 ± 92.1 µM.
